Measurements published in patent publication US6573286B1, “2-(2,6-disubstituted phenyl)-4-aryl-5-alkyl-1,3-oxazoline compounds” (Dow AgroSciences LLC, priority 2002, dated 2003).

Experiments:
Type in all cases: in vivo
[1] = system: cabbage looper (Trichoplusia ni); experiment: Insecticidal test for cabbage looper, treated cabbage leaf disc; conditions: 2nd instar larvae on dipped cabbage leaf discs, 5 days; for pest or weed control at 400 ppm: Trichoplusia ni, foliar, 120 h, read-out: CL: activity against cabbage looper (% Control rating)
Description: (§1) Insecticidal test for tobacco budworm (Heliothis virescens), beet armyworm (Spodoptera exigua), and cabbage looper (Trichoplusia ni). To prepare test solution, the test compound was formulated at 400 ppm in 7.5 mL of 2 acetone:1 tap water. 250 μL of the test solution was pipetted upon the surface of 8 mL of lepidopteran diet (modified Shorey) contained in each of five one-ounce plastic cups (one cup=1 replication). […] After air-drying, the treated leaf discs were placed individually into one-ounce plastic cups. Each dried, treated cotton cotyledon disc was infested with a 2nd instar tobacco budworm larva, and each cabbage leaf disc was infested with a 2nd instar cabbage looper larva. Cups containing the treated substrates and larvae were capped and then held in a growth chamber at 25° C., 50-55% RH, and 14 hr light:10 hr dark for 5 days.

[2] = system: tobacco budworm (Heliothis virescens); experiment: Insecticidal test for tobacco budworm, treated cotton cotyledon leaf disc; conditions: 2nd instar larvae on dipped cotton cotyledon discs, 5 days; for pest or weed control at 400 ppm: Heliothis virescens, foliar, 120 h, read-out: TBW: activity against tobacco budworm (% Control rating)
Description: as §1

[3] = system: beet armyworm (Spodoptera exigua); experiment: Insecticidal test for beet armyworm, treated lepidopteran diet; conditions: 2nd instar larvae on treated diet, 5 days; for pest or weed control at 400 ppm: Spodoptera exigua, 120 h, read-out: BAW: activity against beet armyworm (% Control rating)
Description: as §1

[4] = system: two-spotted spider mite (Tetranychus urticae); experiment: Insecticidal test for two-spotted spider mite, ovicide method; conditions: ovicide method on cotton leaf discs, 6 days; for pest or weed control at 2.5 ppm: Tetranychus urticae, foliar, 144 h, read-out: SM: activity against two-spotted spider mite (% Control rating)
Description: Insecticidal test for two-spotted spider mite (Tetranychus urticae) Ovicide Method: Ten adult female two-spotted spider mites were placed on eight 2.2 cm leaf discs of cotton leaf, allowed to oviposit over 24 hours, and thereafter removed. […] Discs were placed on an agar substrate and held at 24° C. and 90% RH for 6 days.

[5] = system: cotton aphid (Aphis gossypii); experiment: Insecticidal test for cotton aphid, sprayed squash cotyledons; conditions: 50 ppm spray, graded after 3 days
Description: Insecticidal test for cotton aphid (Aphis gossypii) To prepare spray solutions, 1 mg of each test compound was dissolved into 1 mL of a 90:10 acetone:ethanol solvent. This 1 mL of chemical solution was added to 19 mL of water containing 0.05% Tween 20 surfactant to produce a 50 ppm spray solution. Squash cotyledons were infested with cotton aphid (all life stages) 16-20 hours prior to application of spray solution. The solution was sprayed on both sides of each infested squash cotyledon (0.5 mL×2 each side) with a sweeping action until runoff. The plants were allowed to air dry and held for 3 days in a controlled room at 26° C. and 40% RH after which time the test was graded. Grading was by actual count using a dissecting microscope and comparison of test counts to the untreated check.

[6] = system: Sweetpotato Whitefly (Bemisia tabacia); experiment: Insecticidal test for Sweetpotato Whitefly, sprayed cotton plants; conditions: 200 ppm spray, large nymphs counted after 13 days
Description: Insecticidal test for Sweetpotato Whitefly (Bemisia tabacia) Four mg of each test compound were dissolved by adding 4 mL of a 90:10 acetone:ethanol solvent mixture to the vial containing the sample compound. This solution was added to 16 mL of water containing 0.05% Tween 20 surfactant to produce 20 mL of a 200 ppm spray solution. Five-week-old cotton plants reared in a greenhouse were stripped of all foliage except for the two uppermost true leaves that were greater than 5 cm in diameter. These plants were then placed into a laboratory colony of whiteflies for two days for oviposition by the colony females. All whiteflies were then removed from the test plants with pressurized air. The spray solution was then applied to the test plants with a hand-held syringe fitted with hollow cone nozzle. One mL spray solution was applied to each leaf top and bottom for a total of 4 mL per plant. Four replications of each test compound utilized a total of 16 mL spray solution. Plants were air dried and then placed in a holding chamber (28° C. and 60% RH) for 13 days. Compound efficacy was evaluated by counting, under an illuminated magnifying glass, the number of large nymphs (3rd-4th instar) per leaf. Percent control based on reduction of large nymphs of a test compound compared to solution-only (no test compound) sprayed plants is reported in Table 1-8.

Structure (SMILES) | pest or weed control at 400 ppm [1] | pest or weed control at 400 ppm [2] | pest or weed control at 400 ppm [3] | pest or weed control at 2.5 ppm [4] | further results
C[C@H]1OC(c2c(F)cccc2F)=N[C@@H]1c1ccccc1 (racemic) [Compound 35, (4R,5R)- and (4S,5S)-4-phenyl-2-(2,6-difluorophenyl)-5-methyl-4,5-dihydro-1,3-oxazole] | < 50% | < 50% |  |  | 
C[C@@H]1OC(c2c(F)cccc2F)=N[C@H]1c1ccc(-c2ccc(C(F)(F)F)cc2)cc1 (racemic) [Compound 26, (4S,5S)- and (4R,5R)-2-(2,6-difluorophenyl)-5-methyl-4-[4′-(trifluoromethyl)-1,1′-biphenyl-4-yl]-4,5-dihydro-1,3-oxazole] | 90 to 100% |  | 90 to 100% | 90 to 100% | 
C[C@H]1OC(c2c(F)cccc2F)=N[C@@H]1c1ccc(-c2ccc(OC(F)(F)F)cc2)cc1 (racemic) [Compound 27, (4R,5R)- and (4S,5S)-2-(2,6-difluorophenyl)-4-(4′-trifluoromethoxy-1,1′-biphenyl-4-yl)-5-methyl-4,5-dihydro-1,3-oxazole] |  |  |  |  | CL: activity against cabbage looper (% Control rating) ([1]; 400 ppm): A (90-100); TBW: activity against tobacco budworm (% Control rating) ([2]; 400 ppm): B (80-89); BAW: activity against beet armyworm (% Control rating) ([3]; 400 ppm): A (90-100); SM: activity against two-spotted spider mite (% Control rating) ([4]; 2.5 ppm): A (90-100)
Cc1ccccc1C1=N[C@H](c2ccc(Br)cc2)[C@H](C)O1 (racemic) [Compound 17, (4R,5S)- and (4S,5R)-4-(4-bromophenyl)-2-(2-methyl)-5-methyl-4,5-dihydro-1,3-oxazole] | < 50% | < 50% |  |  | 
C[C@@H]1OC(c2c(F)cccc2F)=N[C@H]1c1ccc(-c2ccc(OC(F)(F)F)cc2)cc1 [Compound 47, (4S,5S)-2-(2,6-difluorophenyl)-5-methyl-4-[4′-(trifluoromethoxy)-1,1′-biphenyl-4-yl]-4,5-dihydro-1,3-oxazole] | 90 to 100% |  | 90 to 100% | 90 to 100% | 
C[C@H]1OC(c2c(F)cccc2F)=N[C@@H]1c1ccc(I)cc1 (racemic) [Compound 22, (4R,5R)- and (4S,5S)-4-(4-iodophenyl)-2-(2,6-difluorophenyl)-5-methyl-4,5-dihydro-1,3-oxazole] |  |  |  | 90 to 100% | CA: activity against cotton aphid (% Control rating) [5]: A (90-100)
C[C@H]1OC(c2c(F)cccc2Cl)=N[C@@H]1c1ccc(Br)cc1 (racemic) [Compound 23, (4R,5R)- and (4S,5S)-4-(4-bromophenyl)-2-(2-chloro-6-fluorophenyl)-5-methyl-4,5-dihydro-1,3-oxazole] | < 50% | 80 to 89% |  | 90 to 100% | 
C[C@@H]1OC(c2c(F)cccc2F)=N[C@H]1c1ccc(-c2ccccc2F)cc1 (racemic) [Compound 31, (4S,5S)- and (4R,5R)-2-(2,6-difluorophenyl)-4-(2′-fluoro-1,1′-biphenyl-4-yl)-5-methyl-4,5-dihydro-1,3-oxazole] | 90 to 100% |  |  |  | 
C[C@@H]1OC(c2c(F)cccc2F)=N[C@@H]1c1ccc(-c2ccc(C(F)(F)F)cc2)cc1 (mixture of isomers) [Compound 5, (4R,5S)- and 4S,5R)-2-(2,6-difluorophenyl)-5-methyl-4-[4′-(trifluoromethyl)-1,1′-biphenyl-4-yl]-4,5-dihydro-1,3-oxazole] | 90 to 100% |  | 90 to 100% | 90 to 100% | 
C[C@H]1OC(c2c(F)cccc2F)=NC1c1ccc(-c2ccc3c(c2)OC(F)(F)O3)cc1 (mixture of isomers) [Compound 13, (4R,5S)- and (4S,5R)-4-[4-(2,2-difluoro-1,3-benzodioxol-5-yl)phenyl]-2-(2,6-difluorophenyl)-5-methyl-4,5-dihydro-1,3-oxazole] | 90 to 100% | < 50% |  |  | 
Cc1ccc(-c2ccc([C@@H]3N=C(c4c(F)cccc4F)O[C@H]3C)cc2)cc1C (racemic) [Compound 29, (4S,5S)- and (4R,5R)-2-(2,6-difluorophenyl)-4-(3′,4′-dimethyl-1,1′-biphenyl-4-yl)-5-methyl-4,5-dihydro-1,3-oxazole] | 90 to 100% |  |  |  | 
CCOc1ccc(-c2ccc([C@H]3N=C(c4c(F)cccc4F)O[C@H]3C)cc2)cc1 (racemic) [Compound 12, (4R,5S)- and (4S,5R)-2-(2,6-difluorophenyl)-4-(4′-ethoxy-1,1′-biphenyl-4-yl)-5-methyl-4,5-dihydro-1,3-oxazole] | 90 to 100% | 80 to 89% | 90 to 100% |  | 
C[C@@H]1OC(c2c(F)cccc2F)=N[C@@H]1c1ccc(-c2ccc(OC(F)(F)F)cc2)cc1 (stereo in doubt) [Compound 51, (4R,5S)-2-(2,6-difluorophenyl)-5-methyl-4-[4′-(trifluoromethoxy)-1,1′-biphenyl-4-yl]-4,5-dihydro-1,3-oxazole] | 90 to 100% | 80 to 89% | 90 to 100% | 90 to 100% | CA: activity against cotton aphid (% Control rating) [5]: F (less than 50)
C[C@H]1OC(c2c(F)cccc2F)=N[C@H]1c1ccc(-c2ccc(OC(F)(F)F)cc2)cc1 (racemic) [Compound 6, (4S,5R)- and (4R,5S)-2-(2,6-difluorophenyl)-4-(4′-trifluoromethoxy-1,1′-biphenyl-4-yl)-5-methyl-4,5-dihydro-1,3-oxazole] |  |  |  |  | WF: activity against whitefly (% Control rating) [6]: B (80-89)
C[C@H]1OC(c2c(F)cccc2F)=N[C@@H]1c1ccc(-c2ccc(OC(F)(F)F)cc2)cc1 [Compound 53, (4R,5R)-2-(2,6-difluorophenyl)-5-methyl-4-[4′-(trifluoromethoxy)-1,1′-biphenyl-4-yl]-4,5-dihydro-1,3-oxazole] | 90 to 100% |  | 90 to 100% | 90 to 100% | 
C[C@@H]1OC(c2c(F)cccc2F)=N[C@@H]1c1ccc(-c2ccccc2F)cc1 (racemic) [Compound 15, (4R,5S)- and (4S,5R)-2-(2,6-difluorophenyl)-4-(2′-fluoro-1,1′-biphenyl-4-yl)-5-methyl-4,5-dihydro-1,3-oxazole] | 90 to 100% |  |  |  | 
Cc1ccc(-c2ccc([C@@H]3N=C(c4c(F)cccc4F)O[C@@H]3C)cc2)cc1C (racemic) [Compound 8, (4S,5R)- and (4R,5S)-2-(2,6-difluorophenyl)-4-(3′,4′-dimethyl-1,1′-biphenyl-4-yl)-5-methyl-4,5-dihydro-1,3-oxazole] | 90 to 100% | 60 to 69% | 90 to 100% |  | 
CCOc1ccc(-c2ccc([C@@H]3N=C(c4c(F)cccc4F)O[C@H]3C)cc2)cc1 (racemic) [Compound 33, (4S,5S)- and (4R,5R)-2-(2,6-difluorophenyl)-4-(4′-ethoxy-1,1′-biphenyl-4-yl)-5-methyl-4,5-dihydro-1,3-oxazole] | 90 to 100% | 80 to 89% | 90 to 100% |  | 
C[C@H]1OC(c2c(F)cccc2F)=N[C@H]1c1ccc(-c2ccc(OC(F)(F)F)cc2)cc1 (stereo in doubt) [Compound 49, (4S,5R)-2-(2,6-difluorophenyl)-5-methyl-4-[4′-(trifluoromethoxy)-1,1′-biphenyl-4-yl]-4,5-dihydro-1,3-oxazole] | 90 to 100% | 80 to 89% | 90 to 100% | 90 to 100% | pest or weed control at 200 ppm ([6]; Bemisia, 312 h, read-out: WF: activity against whitefly (% Control rating)): 80 to 89%
